Patent publication US20230242871A1, “GENERATION OF PRIMORDIAL GERM CELLS AND METHODS OF USING THE SAME” (The Board of Trustees of the Leland Stanfor Junior …, priority 2020, published 2023)

Tested on: NANOS3-mCherry hESCs
Test: PGC differentiation of NANOS3-mCherry hESCs, flow cytometry for NANOS3-mCherry fluorescent reporter expression
Format: cell-based, human
Conditions: for efficiency upon SCF/EGF subtraction: SCF/EGF subtraction from D0.5-1.5; for efficiency upon SCF/EGF subtraction / effect of absence of SCF and EGF on PGC differentiation / requirement on the D0.5-D1.5 interval: FIG. 5C; for effect of absence of SCF and EGF on PGC differentiation: absence in the same time window (24 hrs at day 2); for requirement on the D0.5-D1.5 interval: posterior epiblast differentiation into PGCs
Source text: In the NANOS3-mCherry hESC line, a 2A-mCherry fluorescent reporter was inserted immediately downstream of the NANOS3 gene without disrupting its coding sequence (Irie et al., 2014). In the SOX17-GFP hESC line, a GFP fluorescent reporter was inserted immediately after the SOX17 start codon, thus functionally invalidating one SOX17 allele (Wang et al., 2011). In the NANOG-2A-YFP hESC line, Cas9 RNP/AAV6-based genome editing (Martin et al., 2019) was used to insert a 2A-iCaspase9-2A-YFP fluorescent reporter immediately downstream of the NANOG gene without disrupting the NANOG coding sequence.
hPSC differentiation into PGCs. Undifferentiated hPSCs were maintained in mTeSR1 + 1% penicillin/streptomycin and enzymatically passaged (Accutase, 1:8-1:12 split) for differentiation. After overnight recovery in mTeSR1 + Thiazovivin (ROCK inhibitor, 5 µM), the following morning, hPSCs were briefly washed (DMEM/F12) and differentiated into posterior epiblast for 12 hours (100 ng/mL Activin + 3 µM CHIR99021 + 10 µM Y-27632) in aRB27 basal media, which comprised Advanced RPMI 1640 medium supplemented with 1% B27 supplement, 0.1 mM non-essential amino acids (NEAA), 100 U/ml Penicillin + 0.1 mg/ml Streptomycin, and 2 mM L-Glutamine (Kobayashi et al., 2017). Subsequently, […], […], […], 100 ng/mL SCF, 50 ng/mL EGF, 1 µM XAV939, and 10 µM Y-27632 for 24 hours (all in aRB27 basal media). For comparison, published PGC differentiation protocols (Sasaki et al., 2015; Kobayashi et al., 2017) were performed as described previously.
Flow cytometry and fluorescence-activated cell sorting (FACS) for cell-surface marker expression. hPSCs or their differentiated derivatives were dissociated using TrypLE Express (Gibco), were washed off the plate with FACS buffer (PBS + 0.1% BSA fraction V [Gibco] + 1 mM EDTA [Gibco] + 1% penicillin/streptomycin [Gibco]) and were pelleted by centrifugation (5 mins, 4° C.). Subsequently, cell pellets were directly resuspended in FACS buffer containing pre-diluted primary antibodies (listed below), thoroughly triturated to ensure a single cell suspension, and primary antibody staining was conducted for 30 mins on ice. Afterwards, cells were washed with an excess of FACS buffer and pelleted again, and this was conducted one more time. Finally, washed cell pellets were resuspended in FACS buffer containing 1.1 µM DAPI (Biolegend), and were strained through a 35 µm filter. Flow cytometry and sorting was conducted on a BD FACSAria II (Stanford Stem Cell Institute FACS Core).

Row | Compound | differentiation of posterior epiblast into PGCs (phase II: 3 days in PGC-specifying media after 12 hours WNT agonist (phase I), FIG. 1F) | efficiency upon SCF/EGF subtraction (readout D3.5) | effect of absence of SCF and EGF on PGC differentiation | requirement on the D0.5-D1.5 interval | requirement of LIF for the second differentiation stage (FIG. 5E) | efficiency upon addition of LIF (LIF added during D0.5-3.5, readout D3.5, FIG. 5E)
1 | O=c1[nH]c(-c2ccc(C(F)(F)F)cc2)nc2c1CSCC2 [XAV939, 3,5,7,8-Tetrahydro-2-[4-(trifluoromethyl)phenyl]-4H-thiopyrano[4,3-d]pyrimidin-4-one, reference compound] | promotes differentiation of posterior epiblast into PGCs | – | – | – | – | –
2 | EGF: epidermal growth factor, UniProt P01133 (NSDSECPLSHDGYCLHDGVCMYIEALDKYACNCVVGYIGERCQYRDLKWWELR; UniProt P01133 971-1023, looked up) | – | enhance efficiency | superfluous | dispensable | – | –
3 | LIF: LIF, commonly used to enhance PGC survival (Peprotech 300-05) | – | – | – | – | dispensable | does not improve efficiency
4 | SCF: stem cell factor, also known as Kit ligand | – | enhance efficiency | superfluous | dispensable | – | –
